From patent US5326788A, “Biological fluid purification system” (priority 1992, dated 1994)

Test: Addition of hypericin to whole blood: standard blood chemistries, complete blood count, coagulation profile
Design: species or system human; MCV / MCH / MCHC / Bilirubin (direct): unit not given here
Protocol: Triplicate samples of blood were drawn from two normal individuals directly into vacuum tubes. Into one set of tubes was added hypericin dissolved in 10% ethanol, 40% propylene glycol, 50% water to a final concentration of hypericin of 0.1 micrograms/ml of blood. A second set of tubes received hypericin at 1.0 micrograms/ml of blood. The final concentration of ethanol was 0.01% and of propylene glycol 0.04% in each sample, respectively. The third set served as an untreated control. Hypericin-treated and untreated samples were taken directly to a clinical laboratory for testing of standard blood chemistries, complete blood count, and a coagulation profile.

For `Cc1cc(O)c2c(=O)c3c(O)cc(O)c4c5c(O)cc(O)c6c(=O)c7c(O)cc(C)c8c1c2c(c34)c(c78)c65` [hypericin], the “effect on blood chemistries and hematologic parameters (summary)” value (1.0 and 0.1 micrograms/ml) was “no significant effect”, the BUN (Subject #1, 0.1 micrograms/ml) was 13 mg/dL and the Bilirubin (Subject #1, 0.1 micrograms/ml) was 0.5 mg/dL. The “Bilirubin (direct)” value (Subject #1, 0.1 micrograms/ml) was 0.1, the CO2 (Subject #1, 0.1 micrograms/ml) was 28 meq/l and the “Ca^+” value (Subject #1, 0.1 micrograms/ml) was 10.1 mg/dL. For the same compound, the “Cl^-” value (Subject #1, 0.1 micrograms/ml) was 106 meq/l, the Creat (Subject #1, 0.1 micrograms/ml) was 0.9 mg/dL and the ESR (Subject #1, 0.1 micrograms/ml) was 5 mm/hr. For the same compound, the Hb (Subject #1, 0.1 micrograms/ml) was 15.8 gm/dl, the Hct (Subject #1, 0.1 micrograms/ml) was 46.7% and the “K^+” value (Subject #1, 0.1 micrograms/ml) was 4.2 meq/l. It also gave an LDH (Subject #1, 0.1 micrograms/ml) of 154 IU/l, an MCH (Subject #1, 0.1 micrograms/ml) of 30.8 and an MCHC (Subject #1, 0.1 micrograms/ml) of 33.8. The MCV (Subject #1, 0.1 micrograms/ml) was 91.0, the “Na^+” value (Subject #1, 0.1 micrograms/ml) was 140 meq/l and the SGOT (Subject #1, 0.1 micrograms/ml) was 19 IU/l. For the same compound, the WBC (Subject #1, 0.1 micrograms/ml) was 8.1 /cu mm, the albumin (Subject #1, 0.1 micrograms/ml) was 4.8 gm/dl and the alk phos (Subject #1, 0.1 micrograms/ml) was 76 IU/l. For the same compound, the cholesterol (Subject #1, 0.1 micrograms/ml) was 255 mg/dL, the glucose (Subject #1, 0.1 micrograms/ml) was 107 mg/dL and the lymphs (Subject #1, 0.1 micrograms/ml) was 34.9%. For the same compound, the monos (Subject #1, 0.1 micrograms/ml) was 4.2%, the neutr (Subject #1, 0.1 micrograms/ml) was 60.9% and the phosphate (Subject #1, 0.1 micrograms/ml) was 3.7 mg/dL. It also gave a total protein (Subject #1, 0.1 micrograms/ml) of 7.5 gm/dl, a uric acid (Subject #1, 0.1 micrograms/ml) of 5.7 mg/dL and a BUN (Subject #1, 1.0 micrograms/ml) of 12 mg/dL. For the same compound, the Bilirubin (Subject #1, 1.0 micrograms/ml) was 0.5 mg/dL, the “Bilirubin (direct)” value (Subject #1, 1.0 micrograms/ml) was 0.1 and the CO2 (Subject #1, 1.0 micrograms/ml) was 28 meq/l. For the same compound, the “Ca^+” value (Subject #1, 1.0 micrograms/ml) was 10.2 mg/dL, the “Cl^-” value (Subject #1, 1.0 micrograms/ml) was 106 meq/l and the Creat (Subject #1, 1.0 micrograms/ml) was 0.9 mg/dL. The ESR (Subject #1, 1.0 micrograms/ml) was 4 mm/hr, the Hb (Subject #1, 1.0 micrograms/ml) was 16.0 gm/dl and the Hct (Subject #1, 1.0 micrograms/ml) was 47.6%. The “K^+” value (Subject #1, 1.0 micrograms/ml) was 4.3 meq/l, the LDH (Subject #1, 1.0 micrograms/ml) was 153 IU/l and the MCH (Subject #1, 1.0 micrograms/ml) was 30.6. For the same compound, the MCHC (Subject #1, 1.0 micrograms/ml) was 33.6, the MCV (Subject #1, 1.0 micrograms/ml) was 91.1 and the “Na^+” value (Subject #1, 1.0 micrograms/ml) was 137 meq/l. For the same compound, the SGOT (Subject #1, 1.0 micrograms/ml) was 15 IU/l, the WBC (Subject #1, 1.0 micrograms/ml) was 8.0 /cu mm and the albumin (Subject #1, 1.0 micrograms/ml) was 4.8 gm/dl. The alk phos (Subject #1, 1.0 micrograms/ml) was 75 IU/l, the cholesterol (Subject #1, 1.0 micrograms/ml) was 258 mg/dL and the glucose (Subject #1, 1.0 micrograms/ml) was 105 mg/dL. The lymphs (Subject #1, 1.0 micrograms/ml) was 32.9%, the monos (Subject #1, 1.0 micrograms/ml) was 5.5% and the neutr (Subject #1, 1.0 micrograms/ml) was 61.6%. It also gave a phosphate (Subject #1, 1.0 micrograms/ml) of 3.6 mg/dL, a total protein (Subject #1, 1.0 micrograms/ml) of 7.5 gm/dl and a uric acid (Subject #1, 1.0 micrograms/ml) of 5.6 mg/dL. For the same compound, the BUN (Subject #2, 0.1 micrograms/ml) was 9 mg/dL, the Bilirubin (Subject #2, 0.1 micrograms/ml) was 0.5 mg/dL and the “Bilirubin (direct)” value (Subject #2, 0.1 micrograms/ml) was 0.1. The CO2 (Subject #2, 0.1 micrograms/ml) was 27 meq/l.
